Source: article PMC12171880, “Selectivity and Safety Characterization of a Xanthine–Imidazothiazole Lead Structure: a Novel Tryptophan Hydroxylase Inhibitor of Peripheral Serotonin Synthesis” (ACS Pharmacology & Translational Science, 2025)

Assays:
[1] = molecular target: T1, recombinant human TH (Homo sapiens, UniProt P07101); test: TH enzymatic activity assay (fluorescence, 96-well); type: biochemical
T1 construct: For purification of MBP-tagged full-length PAH and TH; made in house; host or cells: E. coli T7 Express (NEB) with pRARE2
T1 sequence (P07101 whole entry): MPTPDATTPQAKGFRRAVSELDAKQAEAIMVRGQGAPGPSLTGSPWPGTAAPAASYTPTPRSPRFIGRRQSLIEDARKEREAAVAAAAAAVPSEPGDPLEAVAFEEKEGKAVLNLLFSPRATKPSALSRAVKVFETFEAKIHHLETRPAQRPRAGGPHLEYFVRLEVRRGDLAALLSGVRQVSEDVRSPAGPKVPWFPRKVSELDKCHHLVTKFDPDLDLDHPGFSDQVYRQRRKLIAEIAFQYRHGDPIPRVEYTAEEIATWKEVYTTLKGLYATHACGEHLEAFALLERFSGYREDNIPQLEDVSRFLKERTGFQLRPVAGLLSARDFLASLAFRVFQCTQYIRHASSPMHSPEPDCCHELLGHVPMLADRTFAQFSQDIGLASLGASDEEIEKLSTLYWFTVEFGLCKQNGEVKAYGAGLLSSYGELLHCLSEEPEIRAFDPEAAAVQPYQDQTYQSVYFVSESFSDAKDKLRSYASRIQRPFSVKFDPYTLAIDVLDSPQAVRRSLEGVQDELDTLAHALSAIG
Method: The TH enzymatic activity assay was performed using a 96-well plate format (Greiner). […] To initiate the reaction, L-Tyr (Fluka) was added (final concentration, 30 μM). The assay contained positive control samples (complete reaction mix, no inhibitor test compound), negative control samples (reaction mix without BH4), and an additional L-Tyr control (reaction mix without BH4, spiked with 25.5 μM or 27 μM L-Tyr) to measure the progression of the enzymatic reaction. All samples were measured in technical triplicates. The TH assay was performed at RT for 30 min. Depletion of the reaction substrate (L-Tyr) was continuously monitored at 240 s intervals by fluorescence measurements (ex.280 nm/em.306 nm) for 12 min using a Tecan Infinite 200 plate reader.
Negative control values (no enzyme or no substrate) were deducted from the positive control (full enzyme activity) and test compound values. Subsequently, the data were normalized (Pos. Ctr. = 100% of the enzyme activity). The results were further analyzed with GraphPad Prism 9 using the nonlinear regression model: log(inhibitor) vs. response−variableslope(fourparameters) which fits the following equation to the data: Y=Bottom+(Top−Bottom)/(1+10^((logIC50−X)×HillSlope))
The IC50 values were calculated from three independent experiments and are given as the mean ± SD.

[2] = system: A3 receptor; parameters: method as in EMA/508026/2017; conditions: 10 μM; ref EMA/508026/2017; cited from earlier work
[3] = molecular target: T2, human recombinant TPH1 (Homo sapiens, UniProt P17752); test: TPH1 enzymatic activity assay (fluorescence, 96-well); type: biochemical
T2 construct: Full-length human TPH1 and TPH2 (UniProt entries P17752 and Q8IWU9); MBP (N); made in house
T2 sequence (P17752 1-444): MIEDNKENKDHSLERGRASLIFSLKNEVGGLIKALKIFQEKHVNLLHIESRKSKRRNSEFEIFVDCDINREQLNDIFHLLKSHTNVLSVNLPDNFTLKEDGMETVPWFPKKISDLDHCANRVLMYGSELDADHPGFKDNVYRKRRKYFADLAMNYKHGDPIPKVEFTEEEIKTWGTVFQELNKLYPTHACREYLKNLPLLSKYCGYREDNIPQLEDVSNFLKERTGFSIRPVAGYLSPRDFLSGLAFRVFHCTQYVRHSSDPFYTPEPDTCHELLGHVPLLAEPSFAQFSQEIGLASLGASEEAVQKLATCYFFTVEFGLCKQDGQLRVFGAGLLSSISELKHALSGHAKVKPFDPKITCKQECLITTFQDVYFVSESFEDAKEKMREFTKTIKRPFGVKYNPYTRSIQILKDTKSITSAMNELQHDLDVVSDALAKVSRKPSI

[4] = system: 5-HT1B receptor; parameters: method as in EMA/508026/2017; conditions: 10 μM; ref EMA/508026/2017; cited from earlier work
[5] = molecular target: T3, human recombinant TPH2 (Homo sapiens, UniProt Q8IWU9); test: TPH2 enzymatic activity assay (fluorescence, 96-well); type: biochemical
T3 construct: Full-length human TPH1 and TPH2 (UniProt entries P17752 and Q8IWU9); MBP (N); made in house
T3 sequence (Q8IWU9 1-490): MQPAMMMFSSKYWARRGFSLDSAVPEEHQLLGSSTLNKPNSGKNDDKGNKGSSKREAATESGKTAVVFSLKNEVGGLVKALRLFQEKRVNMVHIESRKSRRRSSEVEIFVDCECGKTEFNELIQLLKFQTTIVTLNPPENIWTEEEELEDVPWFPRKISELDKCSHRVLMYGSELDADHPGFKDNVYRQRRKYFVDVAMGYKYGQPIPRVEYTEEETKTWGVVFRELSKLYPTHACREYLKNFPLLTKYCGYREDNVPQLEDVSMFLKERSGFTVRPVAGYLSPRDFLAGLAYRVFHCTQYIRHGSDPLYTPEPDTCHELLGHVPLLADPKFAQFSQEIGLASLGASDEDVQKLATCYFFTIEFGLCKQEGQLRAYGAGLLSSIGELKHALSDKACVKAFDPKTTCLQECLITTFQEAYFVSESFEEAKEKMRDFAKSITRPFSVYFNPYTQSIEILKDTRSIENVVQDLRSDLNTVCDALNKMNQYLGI

[6] = system: 5-HT2A receptor; parameters: method as in EMA/508026/2017; conditions: 10 μM; ref EMA/508026/2017; cited from earlier work
[7] = molecular target: T4, human recombinant PAH (Homo sapiens, UniProt P00439); test: PAH enzymatic activity assay (fluorescence, 96-well); type: biochemical
T4 construct: expression vectors for full-length human PAH (UniProt entry P00439); made in house; host or cells: E. coli T7 Express (NEB) with pRARE2
T4 sequence (P00439 1-452): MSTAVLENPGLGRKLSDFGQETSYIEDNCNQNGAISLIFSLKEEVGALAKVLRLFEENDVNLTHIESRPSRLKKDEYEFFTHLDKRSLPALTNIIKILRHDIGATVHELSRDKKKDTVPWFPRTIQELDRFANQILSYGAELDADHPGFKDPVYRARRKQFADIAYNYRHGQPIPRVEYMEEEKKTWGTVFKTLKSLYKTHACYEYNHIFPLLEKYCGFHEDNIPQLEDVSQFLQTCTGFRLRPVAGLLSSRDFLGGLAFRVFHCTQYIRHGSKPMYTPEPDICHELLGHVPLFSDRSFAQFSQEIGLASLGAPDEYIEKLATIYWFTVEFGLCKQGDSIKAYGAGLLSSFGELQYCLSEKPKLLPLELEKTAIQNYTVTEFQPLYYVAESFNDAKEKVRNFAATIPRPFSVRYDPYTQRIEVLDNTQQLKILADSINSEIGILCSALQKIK

[8] = system: 75 human receptors, enzymes, and ion channels; parameters: method as in EMA/508026/2017; conditions: ref EMA/508026/2017; cited from earlier work
[9] = 10 nM to 30 μM, 175 μM L-Phe, 10 μM BH4

Cc1ccn(-c2cc(Cl)ccc2[C@@H](Oc2cc(-c3ccc(C[C@H](N)C(=O)O)cc3)nc(N)n2)C(F)(F)F)n1 [LP778902, Telotristat]
Mean TH activity [%] ([1]; 10 nM): 91.23%
IC50 ([1]; 10 nM to 30 μM, 30 μM L-Tyr, 5 μM BH4): 8.11 µM
Mean TH activity [%] ([1]; 30 nM): 96.35%
Mean TH activity [%] ([1]; 100 nM): 91.73%
Mean TH activity [%] ([1]; 300 nM): 96.86%
Mean TH activity [%] ([1]; 1 μM): 89.03%
Mean TH activity [%] ([1]; 3 μM): 79.57%
Mean TH activity [%] ([1]; 10 μM): 43.11%
Mean TH activity [%] ([1]; 30 μM): 14.34%
inhibition at A3 receptor [2]: more than 50%
Mean TPH1 activity [%] ([3]; 3 nM): 99.75%
Mean TPH1 activity [%] ([3]; 10 nM): 100.85%
Mean TPH1 activity [%] ([3]; 30 nM): 101.72%
Mean TPH1 activity [%] ([3]; 100 nM): 100.00%
Mean TPH1 activity [%] ([3]; 300 nM): 91.38%
Mean TPH1 activity [%] ([3]; 1 μM): 12.20%
Mean TPH1 activity [%] ([3]; 3 μM): 4.78%
Mean TPH1 activity [%] ([3]; 10 μM): 5.34%
inhibition at 5-HT1B receptor [4]: more than 50%
Mean TPH2 activity [%] ([5]; 3 nM): 99.93%
Mean TPH2 activity [%] ([5]; 10 nM): 100.78%
Mean TPH2 activity [%] ([5]; 30 nM): 99.88%
Mean TPH2 activity [%] ([5]; 100 nM): 97.93%
Mean TPH2 activity [%] ([5]; 300 nM): 92.18%
Mean TPH2 activity [%] ([5]; 1 μM): 10.61%
Mean TPH2 activity [%] ([5]; 3 μM): 3.90%
Mean TPH2 activity [%] ([5]; 10 μM): 3.17%
inhibition at 5-HT2A receptor [6]: more than 50%
Mean PAH activity [%] ([7]; 10 nM): 99.68%
IC50 [7, 9]: 2.69 µM
Mean PAH activity [%] ([7]; 30 nM): 96.34%
Mean PAH activity [%] ([7]; 100 nM): 95.74%
Mean PAH activity [%] ([7]; 300 nM): 92.85%
Mean PAH activity [%] ([7]; 1 μM): 79.01%
Mean PAH activity [%] ([7]; 3 μM): 42.58%
Mean PAH activity [%] ([7]; 10 μM): 18.22%
Mean PAH activity [%] ([7]; 30 μM): 7.18%
IC50 ([7]; supplementary CSV): 2.69 µM

CCOC(=O)[C@@H](N)Cc1ccc(-c2cc(O[C@H](c3ccc(Cl)cc3-n3ccc(C)n3)C(F)(F)F)nc(N)n2)cc1 [LX1606, Telotristat ethyl]
Mean TH activity [%] ([1]; 10 nM): 94.16%
Mean TH activity [%] ([1]; 30 nM): 93.57%
Mean TH activity [%] ([1]; 100 nM): 94.52%
Mean TH activity [%] ([1]; 300 nM): 91.31%
Mean TH activity [%] ([1]; 1 μM): 96.27%
Mean TH activity [%] ([1]; 3 μM): 96.83%
Mean TH activity [%] ([1]; 10 μM): 87.53%
Mean TH activity [%] ([1]; 30 μM): 71.72%
reduction of TH activity compared to the positive control ([1]; two highest concentrations (10 and 30 μM)): ≤ 30%
number of 75 receptors with over 50% of the activity inhibited [8]: 16
IC50 ([3]; 3 nM to 10 μM, 15 μM L-Trp, 20 μM BH4): 1.44 µM
Mean PAH activity [%] ([7]; 10 nM): 96.86%
IC50 [7, 9]: 7.91 µM
Mean PAH activity [%] ([7]; 30 nM): 97.35%
Mean PAH activity [%] ([7]; 300 nM): 94.55%
Mean PAH activity [%] ([7]; 1 μM): 91.16%
Mean PAH activity [%] ([7]; 3 μM): 64.20%
Mean PAH activity [%] ([7]; 10 μM): 37.02%
Mean PAH activity [%] ([7]; 30 μM): 33.74%
PAH activity, not reduced below ([7]; highest tested concentration (30 μM)): ≥ 30%
IC50 ([7]; supplementary CSV): 7.91 µM
